From patent publication US7915199B1, “Herbicidal composition” (Syngenta Crop Protection, Inc., priority 1999, dated 2011)

| SMILES | melting point [°C] |
| --- | --- |
| CCc1cc(C)cc(C)c1-c1c(O)n2n(c1=O)CCOCC2 | 182 to 185 |
| CCOC(=O)Oc1c(-c2c(CC)cc(C)cc2CC)c(=O)n2n1CCOCC2 | 114 to 116 |
| Cc1cc(C)c(-c2c(O)n3n(c2=O)CCOCC3)c(C(C)C)c1 | 214 to 216 |
| COc1cc(C)cc(Br)c1-c1c(O)n2n(c1=O)CCOCC2 | 217 to 219 |

More lines, now with the values ahead:

| melting point [°C] | SMILES |
| --- | --- |
| 110 to 113 | CCc1cc(C)cc(C)c1-c1c(OC(=O)C(C)(C)C)n2n(c1=O)CCOCC2 |
| 148 to 151 | Cc1cc(C)c(-c2c(OC(=O)C(C)(C)C)n3n(c2=O)CCOCC3)c(C(C)C)c1 |
| 173 to 175 | COc1cc(C)cc(Br)c1-c1c(OC(=O)C(C)(C)C)n2n(c1=O)CCOCC2 |
